Laboratory results reported in US20160271157A1, “BETA-CATENIN” (UCL BUSINESS PLC, priority 2013, published 2016).
Entries after “also recorded” stand apart in the source; their conditions may differ. Read-outs that look alike come from different tables or passages of the source.

Tests used:
[1] = system: Wnt induced calcium release; test: Wnt induced [Ca2+]i release after preincubation with thapsigargin or membrane potential regulating compounds; type: cell-based
Protocol: The imaging protocol was developed in the inventor's laboratory and has been described in detail, elsewhere (Wang at al., (2010) PLoS ONE 5, e10456). Briefly, 100000-200000 PC3, MCF7, 253J or Cos 7 cells were plated on 35 mm FluoroDish (WPI) and grown for 48 h; calcium indicators Fluo-4 (Invitrogen) and FuraRed (Invitrogen) at 1 ng/ml were added to FluoroDish containing only 1 ml of culture medium and incubated for 15-20 min at 37° C. The culture medium was removed and washed (×2) and replaced with 1 ml PBS. Live cell calcium Imaging was performed on an Olympus FluoView FV 1000 confocal microscope (Olympus KeyMed) equipped with a 20× dry objective (numerical aperture=0.75). Calcium indicators were excited with an argon laser line (488 nm) and emissions recorded in the green channel (500-560 nm) for Fluo-4 and red channel (600-700 nm) for FuraRed after addition of vehicle control (PBS) or Wnt X (30-600 ng/ml). Images were acquired every 1.1 or 2.2 seconds for up to 600-800s; image and data acquisition was performed using FluoView 1000 software (Olympus, UK). Fluorescent intensity was measured and data exported as a tab delimited file for further analysis using a spreadsheet. All imaging experiments were performed in duplicate; intracellular calcium at 100 ng/ml was measured in at least 3-12 different passages (passage numbers 25 to 37) of cell line for each Wnt ligand. Wnt 11 was tested in at least 5 different passages at 3 different concentrations. […]
To measure the effect of changes in membrane potential on [Ca^2+]i release using the protocol described above, in some experiments, external solution (PBS) was substituted with varying concentrations of KCl. In other experiments chemical inhibitors of K^+ channels such as TEA, CsCl or tolbutamide (Sigma-Aldrich) were added to the cells grown on FluoroDish, at 37° C., at least 5 min prior to addition of Wnt ligands.
After image acquisition, regions of interest (ROI) were drawn over individual PC3 cells (up to 25) in a single frame and calcium intensity measurements were made using FluoView 1000 software (Olympus, UK). The measurements were exported as a tab delimited file into a spreadsheet for further analysis and Fluo4/Fura Red ratios were calculated. The waveform, a product of the ratio of Fluo4 and FuraRed over the period of measurement was used to measure the kinetics of the activation of [Ca^2+]i release in PC3 cells, in response to different Wnt ligands. The time constants (rise, dwell and fall times) were calculated by first fitting the Fluo4/FuraRed ratio to a single Gaussian function (Origin Lab Corp., MA); a lower (10%) and upper (90%) amplitude thresholding method was then used to calculate the time constants (s). Statistical significance was calculated using Mann Whitney U test.

[2] = system: β-catenin translocation to the nucleus; test: β-catenin immunocytochemistry and nuclear co-localization analysis, PC3; type: cell-based; settings: PC3 cells, K+ channel inhibitors 1-15 mM, Wnt5A and 9B
Protocol: Immunostaining was performed in two different laboratories, independently with the experimenter blind to the identity of the treatment. Either cells used in FluoroDish, post [Ca^2+]i experiments using dyes (see above) or grown in 8 well chamber glass slides (Lab Tek II, Nunc) were used. For Wnt ligand treatment, the culture medium replaced with PBS (without calcium) at 37° C. The experiments were replicated for Wnt ligand or vehicle control as described for [Ca^2+]i measurements. Briefly, Wnt ligands were added and chamber slides incubated at 37° C. for up to 20 min. Chamber wells were washed 3× with 0.5 ml PBS and cells were fixed with 0.5 ml 4% formalin for 30 min at 4° C. Cells were washed 3× with ice cold PBS and stored in 0.5 ml PBS at 4° C. for immunostaining. In some experiments PC3 cells were treated with thaspsigargin as described above.
For immunostaining cells were washed twice for 5 minutes in TBST (20 mM Tris pH 7.4, 0.9% NaCl, 0.1% Tween 20, Sigma). Cells were then incubated in 20% normal goat serum (NGS)/TBST for 30 min at room temperature, the chambers were drained and cells were incubated with mouse anti-β-catenin (ab22656, Abcam, UK) at 1:500 dilution in NGS/TBST overnight at 4° C. Following two further 5 min washes in TBST sections were incubated in goat anti-mouse peroxidase fab (Abcam, UK) at 1:500 dilution for 30 min at room temperature. Following a further two 5 min washes in TBST cells were incubated with tyramide Cy3 (Perkin Elmer) for 10 min at room temperature. Sections were washed twice for 5 min in TBST before nuclear counterstaining with DAPI. After a final two 5 min washes, the chambers were removed and cover slip placed on slides using Permafluor (Thermo Shandon).
Fluorescence immunocytochemical staining for β-catenin expression in cell lines was imaged using Olympus Fluoview 1000 Confocal Microscope (Olympus KeyMed) mounted on an Olympus IX81 inverted microscope using a 20×0.7 NA or 40×1.0 NA dry objective with a zoom of ×3.4′,6-diamidino-2-phenylindole (DAPI, nuclear counterstain) was excited at 405 nm with an emission of 415-500 nm; Cy3 (β-catenin label) signal was excited at 561 nm with an emission spectrum between 570-670 nm. […] Z-stacks of at least 3 fields per sample were imaged and saved in Olympus FV (OIF or OIB) file format.
Nuclear co-localization of β-catenin was calculated by importing FV files for untreated, control or treated cells, into colocalization plugin of Fiji software (http://fiji.sc/Fiji) for Cy3 (β-catenin) and DAPI (nuclear) signals. Pearson co-relation of colocalization were tabulated for 25-90 cells (from 2-5 different passages of cells) using ROI analysis. Statistical significance between untreated and treated cells was calculated using Mann Whitney U test.

[3] = system: PC3 prostate cancer cell line; test: Cell proliferation assay, live imaging (Incucyte), PC3; type: cell-based
Protocol: Growth curve was monitored at 37° C. in a CO2 incubator by using time lapse imaging with Incucyte (Essen Biosciences) for up to 150 h after plating the cells (t=o) at a density of 25-100 k cells per well in a 6 well plate (Nunc). MPRCs were added at the stated concentrations 24 h after cell plating;
A live imaging system (Incucyte, EssenBiosciences) was used to measure the effect of K^+ channel inhibitors on the rate of cell proliferation. PC3 cells were plated on 6 well plates (Nunc) in 3 ml culture medium (Wang et al (2010) PLoS ONE 5, e10456); K^+ channel inhibitors were added to the wells at 0-15 mM. The plates were placed in Incucyte in a standard cell culture incubator at 37° C. and CO2. Each well was imaged at an interval of up to 4 h and rate of cell proliferation was calculated from these images using Incucyte software.

[4] = system: MCF7 breast cancer cell line; test: Cell growth, time lapse imaging (Incucyte), MCF7; type: cell-based, human; settings: MCF7 cells, nicorandil shown as an example
Protocol: Growth curve was monitored at 37° C. in a CO2 incubator by using time lapse imaging with Incucyte (Essen Biosciences) for up to 150 h after plating the cells (t=o) at a density of 25-100 k cells per well in a 6 well plate (Nunc). MPRCs were added at the stated concentrations 24 h after cell plating.

[5] = preincubation 5 min, Wnt 9B 0.1 μg/ml as example, CsCl 5 mM, CdCl2 1 mM, TEA 10 mM, Amiodarone 75 μM, Tolbutamide 1 mM, Isradipine 100 μM, Nifedipine 1 mM, Minoxidil 25 μM, Atenolol 37.5 μM, Propanolol 50 μM, Furosemide 150 μM
[6] = PC3 cells, inhibitors at 0-15 mM

SMILES | Wnt ligand induced calcium release after preincubation with MPRC (FIG. 16) [1, 5] | Wnt mediated β-catenin stabilization and translocation to the nucleus (FIG. 11) [2] | rate of cell proliferation (confluence of cell growth, FIG. 12) [3, 6] | other results
CCCCNC(=O)NS(=O)(=O)c1ccc(C)cc1 [Tolbutamide] | inhibited | reduced; also recorded: inhibition | inhibit proliferation | rate of cell proliferation (confluence of cell growth, FIG. 12) ([3]; PC3 cells, inhibitors at 0-15 mM, listed as tolbutamide): inhibition
CC[N+](CC)(CC)CC [TEA, tetraethylammonium] |  | reduced; also recorded: biggest reduction |  | Wnt induced [Ca2+]i release after pre-incubation with K+ channel blocker (FIG. 11) [1]: reduced; also recorded: abolished; Wnt ligand induced calcium release after preincubation with MPRC (FIG. 16) [1]: inhibited; rate of cell proliferation (confluence of cell growth, FIG. 12) [3]: inhibit proliferation
CC(C)NCC(O)COc1ccc(CC(N)=O)cc1 (stereo not drawn) [Atenolol] | inhibited |  |  | 
O=C(NCCO[N+](=O)[O-])c1cccnc1 [Nicorandil] |  |  |  | Wnt signaling measured using intracellular calcium release (FIG. 22 A and B) [1]: do not inhibit; cell proliferation (FIG. 22 C) ([3]; PC3 cells, Incucyte, nicorandil shown as an example): do not inhibit; cell proliferation (FIG. 22 D) [4]: do not inhibit
[Cl-].[Cs+] [CsCl] | inhibited | reduced | inhibit proliferation | 
